In US20140309419A1, “METHOD FOR ENHANCING THE THERMAL STABILITY OF IONIC COMPOUNDS” (Danmarks Tekniske Universite, priority 2011, published 2014):
Marks after values point to notes of the source that are not given here.

What was measured:
[1] = Thermal stability by TGA, inflection point method (TA2950 TGA, 5° C./min, dried air); assay type: physicochemical; details: not supported/neat
Source text: (§1) The term “upper operating temperature” as used herein refers to the highest temperature to which the ionic compound can be heated without undergoing thermal degradation. This temperature is usually and routinely measured by Thermo Gravimetric Analysis (TGA) and/or Differential Scanning calorimetry (DSC).

[2] = Thermal stability by TGA, T5% onset method (Mettler-Toledo TGA/DSC, 5° C./min, nitrogen); assay type: physicochemical; details: not supported/neat
Source text: as §1

[3] = Thermal stability by TGA, supported vs. unsupported, evaluation method not marked
Experimental: To test for such influence, adsorption experiments with butylmethylimidazolium acetate [BMIM][OAc] on four different porous silica types was carried out (FIG. 7a, 7b). The silicas had the following pore diameters: PG2000 (pore diameter 2000 Å), PG500 (pore diameter 500 Å), PG75 (pore diameter 75 Å) and MCM-41 (pore diameter 50 Å).
The silicas had the following pore diameters: PG2000 (pore diameter 2000 Å), PG500 (pore diameter 500 Å) and PG75 (pore diameter 75 Å).
Thermal stability was measured by using thermogravimetric analysis (TGA), with isocratic heating at 5° C. min^−1 under an inert nitrogen and/or dried air atmosphere. The decomposition temperatures were determined from both the T5% onset (onset temperature for 5% decomposition) in an isocratic TGA experiment, and from the inflection point (temperature at the inflection point of TGA curve, which indicates the point where the degradation rate is maximum). For T5% onset measurements, thermal stability was determined in a Mettler-Toledo Star^e TGA/DSC unit by heating from 25° C. to 800° C. with a heating rate of 5° C./min under nitrogen. For inflection point measurements, thermal stability was determined using a TA2950 TGA unit by heating from 25° C. to 800° C. with a heating rate of 5° C./min under dried air.

[4] = 10% (wt/wt) on PG75 silica (pore diameter 75 Å)
[5] = 10% (wt/wt) on PG500 silica (pore diameter 500 Å)
[6] = 10% (wt/wt) on PG2000 silica (pore diameter 2000 Å)

SMILES | Thermal Stability (inflection point) [1] | enhancement of thermal stability vs. unsupported [3, 4] | enhancement of thermal stability vs. unsupported [3, 5] | enhancement of thermal stability vs. unsupported [3, 6] | also measured
CCCCC(CC)COC(=O)CC(C(=O)OCC(CC)CCCC)S(=O)(=O)O (centres unmarked) [Dioctylsulfosuccinic Acid [3], Dioctylsulfosuccinic Acid] | 161.86^b ° C. |  |  |  | 
CC(C)Cc1ccc(C(C)C(=O)O)cc1 (centres unmarked) [Ibuprofene (free acid), Ibuprofene] |  |  |  |  | Thermal Stability (T5% onset) [2]: 154.7^a ° C.
CC[N+](CC)(CC)CC.O=C(O)CNCP(=O)([O-])O [Tetraethylammonium Glyphosate [5], Tetraethylammonium Glyphosate] | 149.76^b ° C. |  |  |  | 
CCCCCCCCCCCCCCCC[N+](C)(C)C.Nc1nc2c(ncn2COCCO)c(=O)[n-]1 [Trimethylhexadecylammonium acyclovir [2], Trimethylhexadecylammonium Acyclovir] | 188.60^b ° C. |  |  |  | 
CCCCn1cc[n+](C)c1.[Cl-] [[BMIM][Cl], butylmethylimidazolium chloride] |  | no enhancement of thermal stability | no enhancement of thermal stability | no enhancement of thermal stability | 
CC(=O)[O-].CCCCn1cc[n+](C)c1 [[BMIM][OAc], butylmethylimidazolium acetate] |  | significant enhancement of the thermal stability | no enhancement of thermal stability | no enhancement of thermal stability | enhancement of thermal stability vs. unsupported ([3]; 10% (wt/wt) on MCM-41 silica (pore diameter 50 Å)): significant enhancement of the thermal stability
